# According to patent US20090325913A1, “Treatment of pain using satraplatin” (priority 2006, published 2009):
# Key:
# [1] = test system: prostate cancer cell lines PC-3, DU 145 and LNCaP; conditions: cited from earlier work
# [2] = test system: patients with metastatic prostatic carcinoma; conditions: single agent; cited from earlier work
# [3] = test system: mismatch repair-proficient and mismatch repair-deficient cell lines; conditions: cited from earlier work
# [4] = test system: human tumor cell lines with different sensitivities to cisplatin; conditions: at equimolar basis; cited from earlier work
# [5] = test system: CYP enzymes (cytochrome P450 system); assay: Inhibition of CYP enzymes; assay type: in vitro ADME
# Source text: This may result in increased toxicity of certain drugs (see Appendix 5). Patients will be monitored closely for drug interactions or adverse reactions to concomitant medications. Investigators are cautioned to adjust concomitant medication dosages appropriately.
# [6] = test system: human lung cancer cells; conditions: cited from earlier work
Structure (SMILES),effect of treatment on prostate cancer cells [1],efficacy [2],difference in sensitivity between mismatch repair-proficient and -deficient cell lines [3],sensitivity of androgen-insensitive PC-3 and DU 145 vs androgen-sensitive LNCaP [1],levels of platinum-DNA adducts compared to cisplatin [4],inhibition of CYP enzymes [5],effect on radiation response [6]
"N.NC1CCCCC1.[Cl-].[Cl-].[Pt+2] [JM118, reference compound]",tumor cell kill,,,,,,
N.N.[Cl][Pt][Cl] [cisplatin],,not effective,,,,,
"CC(=O)[O][Pt]([NH2])([Cl])([Cl])([NH]C1CCCCC1)[O]C(C)=O [satraplatin, bis(acetato)ammine dichloro(cyclohexylamine)platinum (IV)]",tumor cell kill,,no difference in sensitivity,more sensitive,lower levels of platinum-DNA adducts,strong inhibitor,can potentiate the effects of radiation
